Values after ≈ are worked out from the molar mass of the structure shown.
What follows are molecules tested on S. aureus ATCC 29213 (assay: MIC determination). Conditions: Staphylococcus aureus, ATCC29213, S. aureus ATCC 29213; read-out: MIC.
Format: cell-based
Work on CSC1O[C@H]([C@H](NC(=O)[C@H]2NC[C@@H]3CC(NCc4ccccc4F)CCO[C@H]32)[C@H](C)Cl)C(O)C(O)[C@H]1O (stereo partly shown) [FSA-510072] yielded an MIC of 64 µg/mL (≈ 114 µM).
COc1ccc([C@H]2CCO[C@@H]3[C@H](CN[C@@H]3C(=O)N[C@H]([C@H](C)Cl)[C@H]3OC(SC)[C@H](O)[C@H](O)C3O)C2)cc1 (stereo partly shown) [FSA-512080b] showed an MIC of 0.12 µg/mL (≈ 0.22 µM).

Each molecule was assayed on S. aureus BAA 977 iErmA (assay: MIC determination). Conditions: Staphylococcus aureus, BAA977.
Format: cell-based
COc1ccc([C@H]2CCO[C@@H]3[C@H](CN[C@@H]3C(=O)N[C@H]([C@H](C)Cl)[C@H]3OC(SC)[C@H](O)[C@H](O)C3O)C2)cc1 (stereo partly shown) [FSA-512080b] gave an MIC of 0.25 µg/mL (≈ 0.459 µM).

Each molecule was assayed on S. aureus MP-549 msr(a) USA 300 (assay: MIC determination). Conditions: Staphylococcus aureus, USA300, S. aureus MP-549 msr(a) USA 300.
Format: cell-based
With CSC1O[C@H]([C@H](NC(=O)[C@H]2NC[C@@H]3CC(NCc4ccccc4F)CCO[C@H]32)[C@H](C)Cl)C(O)C(O)[C@H]1O (stereo partly shown) [FSA-510072] the MIC was 64 µg/mL (≈ 114 µM).
COc1ccc([C@H]2CCO[C@@H]3[C@H](CN[C@@H]3C(=O)N[C@H]([C@H](C)Cl)[C@H]3OC(SC)[C@H](O)[C@H](O)C3O)C2)cc1 (stereo partly shown) [FSA-512080b] gave an MIC of 0.5 µg/mL (≈ 0.917 µM).

What follows are molecules tested on S. aureus MMX 3035 cErmA (assay: MIC determination). Conditions: Staphylococcus aureus, MMX3035CERMA; S. aureus MMX 3035 cErmA; read-out: MIC.
Format: cell-based
Molecule COc1ccc([C@H]2CCO[C@@H]3[C@H](CN[C@@H]3C(=O)N[C@H]([C@H](C)Cl)[C@H]3OC(SC)[C@H](O)[C@H](O)C3O)C2)cc1 (stereo partly shown) [FSA-512080b] has an MIC of 64 µg/mL (≈ 117 µM).

These molecules were tested on S. pneumoniae ATCC 49619 (assay: MIC determination). Conditions: Streptococcus pneumoniae, ATCC49619; S. pneumoniae ATCC 49619; read-out: MIC.
Format: cell-based
CSC1O[C@H]([C@H](NC(=O)[C@H]2NC[C@@H]3CC(NCc4ccccc4F)CCO[C@H]32)[C@H](C)Cl)C(O)C(O)[C@H]1O (stereo partly shown) [FSA-510072] gave an MIC of 30 µg/mL (≈ 53.4 µM).
COc1ccc([C@H]2CCO[C@@H]3[C@H](CN[C@@H]3C(=O)N[C@H]([C@H](C)Cl)[C@H]3OC(SC)[C@H](O)[C@H](O)C3O)C2)cc1 (stereo partly shown) [FSA-512080b] gave an MIC of no more than 0.06 µg/mL.

These molecules were tested on S. pneumoniae MMX 3028 cErmB (assay: MIC determination). Conditions: Streptococcus pneumoniae, MMX3028CERMB; S. pneumoniae MMX 3028 cErmB; read-out: MIC.
Format: cell-based
Work on COc1ccc([C@H]2CCO[C@@H]3[C@H](CN[C@@H]3C(=O)N[C@H]([C@H](C)Cl)[C@H]3OC(SC)[C@H](O)[C@H](O)C3O)C2)cc1 (stereo partly shown) [FSA-512080b] yielded an MIC of 4 µg/mL (≈ 7.34 µM).

Each molecule was assayed on S. pneumoniae MMX 3031 cMefA (assay: MIC determination). Conditions: Streptococcus pneumoniae, MMX3031CMEFA.
Format: cell-based
COc1ccc([C@H]2CCO[C@@H]3[C@H](CN[C@@H]3C(=O)N[C@H]([C@H](C)Cl)[C@H]3OC(SC)[C@H](O)[C@H](O)C3O)C2)cc1 (stereo partly shown) [FSA-512080b] was tested, and the MIC was no more than 0.06 µg/mL.

The molecules below were run on S. pyogenes ATCC 19615 (assay: MIC determination). Conditions: Streptococcus pyogenes, ATCC19615; S. pyogenes ATCC 19615; read-out: MIC.
Format: cell-based
CSC1O[C@H]([C@H](NC(=O)[C@H]2NC[C@@H]3CC(NCc4ccccc4F)CCO[C@H]32)[C@H](C)Cl)C(O)C(O)[C@H]1O (stereo partly shown) [FSA-510072] was tested, and the MIC was 8 µg/mL (≈ 14.2 µM).
COc1ccc([C@H]2CCO[C@@H]3[C@H](CN[C@@H]3C(=O)N[C@H]([C@H](C)Cl)[C@H]3OC(SC)[C@H](O)[C@H](O)C3O)C2)cc1 (stereo partly shown) [FSA-512080b] showed an MIC of no more than 0.06 µg/mL.

These molecules were tested on S. pyogenes MMX 946 Macrolide-Resistant (assay: MIC determination). Conditions: Streptococcus pyogenes; S. pyogenes MMX 946 MacRes; read-out: MIC.
Format: cell-based
COc1ccc([C@H]2CCO[C@@H]3[C@H](CN[C@@H]3C(=O)N[C@H]([C@H](C)Cl)[C@H]3OC(SC)[C@H](O)[C@H](O)C3O)C2)cc1 (stereo partly shown) [FSA-512080b] showed an MIC of 16 µg/mL (≈ 29.4 µM).

These molecules were tested on E. faecalis ATCC 29212 (assay: MIC determination). Conditions: Enterococcus faecalis, ATCC29212.
Format: cell-based
Molecule CSC1O[C@H]([C@H](NC(=O)[C@H]2NC[C@@H]3CC(NCc4ccccc4F)CCO[C@H]32)[C@H](C)Cl)C(O)C(O)[C@H]1O (stereo partly shown) [FSA-510072] has an MIC greater than 64 µg/mL.
COc1ccc([C@H]2CCO[C@@H]3[C@H](CN[C@@H]3C(=O)N[C@H]([C@H](C)Cl)[C@H]3OC(SC)[C@H](O)[C@H](O)C3O)C2)cc1 (stereo partly shown) [FSA-512080b] gave an MIC of 0.5 µg/mL (≈ 0.917 µM).

What follows are molecules tested on E. faecalis MMX 847 Macrolide-Resistant (assay: MIC determination). Conditions: Enterococcus faecalis; E. faecalis MMX 847 MacRes; read-out: MIC.
Format: cell-based
COc1ccc([C@H]2CCO[C@@H]3[C@H](CN[C@@H]3C(=O)N[C@H]([C@H](C)Cl)[C@H]3OC(SC)[C@H](O)[C@H](O)C3O)C2)cc1 (stereo partly shown) [FSA-512080b] was tested, and the MIC was 64 µg/mL (≈ 117 µM).

These molecules were tested on K. pneumoniae ATCC 10031 (assay: MIC determination). Conditions: Klebsiella pneumoniae, ATCC10031.
Format: cell-based
CSC1O[C@H]([C@H](NC(=O)[C@H]2NC[C@@H]3CC(NCc4ccccc4F)CCO[C@H]32)[C@H](C)Cl)C(O)C(O)[C@H]1O (stereo partly shown) [FSA-510072] gave an MIC greater than 64 µg/mL.

Each molecule was assayed on E. coli ATCC 25922 (assay: MIC determination). Conditions: Escherichia coli, ATCC25922.
Format: cell-based
With CSC1O[C@H]([C@H](NC(=O)[C@H]2NC[C@@H]3CC(NCc4ccccc4F)CCO[C@H]32)[C@H](C)Cl)C(O)C(O)[C@H]1O (stereo partly shown) [FSA-510072] the MIC was greater than 64 µg/mL.

Same assay, conditions: Escherichia coli, ATCC25922, E. coli ATCC 25922; read-out: MIC
COc1ccc([C@H]2CCO[C@@H]3[C@H](CN[C@@H]3C(=O)N[C@H]([C@H](C)Cl)[C@H]3OC(SC)[C@H](O)[C@H](O)C3O)C2)cc1 (stereo partly shown) [FSA-512080b] gave an MIC of 128 µg/mL (≈ 235 µM).

What follows are molecules tested on E. coli MP-9 ΔTolC (assay: MIC determination). Conditions: Escherichia coli.
Format: cell-based
CSC1O[C@H]([C@H](NC(=O)[C@H]2NC[C@@H]3CC(NCc4ccccc4F)CCO[C@H]32)[C@H](C)Cl)C(O)C(O)[C@H]1O (stereo partly shown) [FSA-510072] gave an MIC greater than 64 µg/mL.
COc1ccc([C@H]2CCO[C@@H]3[C@H](CN[C@@H]3C(=O)N[C@H]([C@H](C)Cl)[C@H]3OC(SC)[C@H](O)[C@H](O)C3O)C2)cc1 (stereo partly shown) [FSA-512080b] gave an MIC of 4 µg/mL (≈ 7.34 µM).

These molecules were tested on E. coli MP-74 LptD mutant (assay: MIC determination). Conditions: Escherichia coli.
Format: cell-based
In the case of CSC1O[C@H]([C@H](NC(=O)[C@H]2NC[C@@H]3CC(NCc4ccccc4F)CCO[C@H]32)[C@H](C)Cl)C(O)C(O)[C@H]1O (stereo partly shown) [FSA-510072], the MIC is reported as greater than 64 µg/mL.
Molecule COc1ccc([C@H]2CCO[C@@H]3[C@H](CN[C@@H]3C(=O)N[C@H]([C@H](C)Cl)[C@H]3OC(SC)[C@H](O)[C@H](O)C3O)C2)cc1 (stereo partly shown) [FSA-512080b] has an MIC of 8 µg/mL (≈ 14.7 µM).

These molecules were tested on H. influenzae ATCC 49247 (assay: MIC determination). Conditions: Haemophilus influenzae, ATCC49247.
Format: cell-based
With CSC1O[C@H]([C@H](NC(=O)[C@H]2NC[C@@H]3CC(NCc4ccccc4F)CCO[C@H]32)[C@H](C)Cl)C(O)C(O)[C@H]1O (stereo partly shown) [FSA-510072] the MIC was greater than 64 µg/mL.

Same assay, conditions: Haemophilus influenzae, ATCC49247; H. influenzae ATCC 49247; read-out: MIC
For COc1ccc([C@H]2CCO[C@@H]3[C@H](CN[C@@H]3C(=O)N[C@H]([C@H](C)Cl)[C@H]3OC(SC)[C@H](O)[C@H](O)C3O)C2)cc1 (stereo partly shown) [FSA-512080b], the MIC was 16 µg/mL (≈ 29.4 µM).
